Laboratory results from patent US20170306409A1, “CANCER PATIENT SELECTION FOR ADMINISTRATION OF WNT SIGNALING INHIBITORS USING RNF43 MUTATION STATUS” (NOVARTIS AG, priority 2012, published 2017).

Columns and labels:
Assay in all cases: foci formation assay
Format in all cases: cell-based, human
Details in all cases: 1 μM LGK974
PaTu-8988T = tested on: PaTu-8988T
Experimental: (§1) To assay foci formation, 6,000˜12,000 cells of indicated cell lines were seeded in 6 well tissue culture plate in 2 ml growth media. After overnight culture for cell attachment, media was replaced with fresh growth media containing 1 μM LGK974 in the absence and presence of recombinant Wnt3a. For DOX-inducible β-catenin shRNA experiment, cells were treated 5 ng/ml doxycycline. When cell colonies reached desirable size, cells were fixed with 4% formalin in PBS and stained with crystal violet solution. After a few washes, plates were dried and imaged.
(§2) Identification of pancreatic cancer lines containing inactivation mutation of RNF43. Discovery of LGK974, a potent and selective inhibitor of Porcupine, offered us a unique chemical tool to systemically examine Wnt dependency in a large panel of cancer cell lines. We tested LGK974 in a large panel of pancreatic cancer cell lines using foci formation assay. Foci formation assay was utilized because it is more sensitive than routine growth assays such as CellTiter-Glo, and it is less affected by the different growth rates of various cell lines.

SU86.86 = tested on: SU86.86
Experimental: as §1, §2

PK59 = tested on: PK59
Experimental: as §1, §2

PSN-1 = tested on: PSN-1
Experimental: as §1, §2

KLM1 = tested on: KLM1
Experimental: as §1, §2

Capan-2 = tested on: Capan-2
Experimental: as §1, §2

Panc10.05 = tested on: Panc10.05
Experimental: as §1, §2

CFPAC-1 = tested on: CFPAC-1
Experimental: as §1, §2

PANC-1 = tested on: PANC-1
Experimental: as §1, §2

KP2 = tested on: KP2
Experimental: as §1, §2

L3.3 = tested on: L3.3
Experimental: as §1, §2

PL45 = tested on: PL45
Experimental: as §1, §2

PK45H = tested on: PK45H
Experimental: as §1, §2

SUIT-2 = tested on: SUIT-2
Experimental: as §1, §2

DanG = tested on: DanG
Experimental: as §1, §2

BXPC3 = tested on: BXPC3
Experimental: as §1, §2

MIA CaPa-2 = tested on: MIA CaPa-2
Experimental: as §1, §2

KCl-MOH1 = tested on: KCl-MOH1
Experimental: as §1, §2

KP4 = tested on: KP4
Experimental: as §1, §2

PaTu-8988S = tested on: PaTu-8988S
Experimental: as §1, §2

Panc04.03 = tested on: Panc04.03
Experimental: as §1, §2

Pan02.03 = tested on: Pan02.03
Experimental: as §1, §2

PaTu-8902 = tested on: PaTu-8902
Experimental: as §1, §2

Hs766T = tested on: Hs766T
Experimental: as §1, §2

KP3 = tested on: KP3
Experimental: as §1, §2

Panc05.04 = tested on: Panc05.04
Experimental: as §1, §2

SW1990 = tested on: SW1990
Experimental: as §1, §2

Panc03.27 = tested on: Panc03.27
Experimental: as §1, §2

HPAFII = tested on: HPAFII
Experimental: as §1, §2

KP-1NL = tested on: KP-1NL
Experimental: as §1, §2

Capan-1 = tested on: Capan-1
Experimental: as §1, §2

HuPT4 = tested on: HuPT4
Experimental: as §1, §2

Panc08.13 = tested on: Panc08.13
Experimental: as §1, §2

PK1 = tested on: PK1
Experimental: as §1, §2

With `Cc1cc(-c2ncc(CC(=O)Nc3ccc(-c4cnccn4)cn3)cc2C)ccn1` [LGK974, 2-[5-methyl-6-(2-methylpyridin-4-yl)pyridin-3-yl]-N-[5-(pyrazin-2-yl)pyridin-2-yl]acetamide] the “Growth inhibition in foci formation assay” value (“Growth inhibition” below) (PaTu-8988T) was “not sensitive and No”, the “Growth inhibition” value (SU86.86) was “No” and the “Growth inhibition” value (PK59) was “No”. For the same compound, the “Growth inhibition” value (PSN-1) was “No”, the “Growth inhibition” value (KLM1) was “No” and the “Growth inhibition” value (Capan-2) was “strong growth inhibitory activity and strongly inhibited and Yes”. For the same compound, the “Growth inhibition” value (Panc10.05) was “not sensitive and No”, the “Growth inhibition” value (CFPAC-1) was “No” and the “Growth inhibition” value (PANC-1) was “No”. For the same compound, the “Growth inhibition” value (KP2) was “No”, the “Growth inhibition” value (L3.3) was “No” and the “Growth inhibition” value (PL45) was “not sensitive and No”. For the same compound, the “Growth inhibition” value (PK45H) was “No”, the “Growth inhibition” value (SUIT-2) was “No” and the “Growth inhibition” value (DanG) was “No”. For the same compound, the “Growth inhibition” value (BXPC3) was “No”, the “Growth inhibition” value (MIA CaPa-2) was “No” and the “Growth inhibition” value (KCl-MOH1) was “No”. For the same compound, the “Growth inhibition” value (KP4) was “No”, the “Growth inhibition” value (PaTu-8988S) was “strong growth inhibitory activity and strongly inhibited and Yes” and the “Growth inhibition” value (Panc04.03) was “No”. The “Growth inhibition” value (Pan02.03) was “No”, the “Growth inhibition” value (PaTu-8902) was “No” and the “Growth inhibition” value (Hs766T) was “No”. For the same compound, the “Growth inhibition” value (KP3) was “No”, the “Growth inhibition” value (Panc05.04) was “No” and the “Growth inhibition” value (SW1990) was “No”. For the same compound, the “Growth inhibition” value (Panc03.27) was “No”, the “Growth inhibition” value (HPAFII) was “strong growth inhibitory activity and strongly inhibited and Yes” and the “Growth inhibition” value (KP-1NL) was “No”. The “Growth inhibition” value (Capan-1) was “No”, the “Growth inhibition” value (HuPT4) was “No” and the “Growth inhibition” value (Panc08.13) was “No”. For the same compound, the “Growth inhibition” value (PK1) was “without significant effect and No”.
